Assay results: PubChem BioAssay (NCI)
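How tested: cells in 96-well plates exposed to compound for 48 hours at five concentrations. GI50 = concentration required for 50% inhibition of growth. TGI denotes the concentration required for complete inhibition of growth.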

Assays:
Test in all cases: DTP human tumour cell line panel, 48 h
786-0 renal = system: 786-0 renal
A498 renal = system: A498 renal
A549 NSCLC = system: A549 NSCLC
ACHN renal = system: ACHN renal
BT-549 breast = system: BT-549 breast
CAKI-1 renal = system: CAKI-1 renal
CCRF-CEM leukemia = system: CCRF-CEM leukemia
COLO 205 colon = system: COLO 205 colon
DU-145 prostate = system: DU-145 prostate
EKVX NSCLC = system: EKVX NSCLC
HCC-2998 colon = system: HCC-2998 colon
HCT-116 colon = system: HCT-116 colon
HCT-15 colon = system: HCT-15 colon
HOP-62 NSCLC = system: HOP-62 NSCLC
HOP-92 NSCLC = system: HOP-92 NSCLC
HS 578T breast = system: HS 578T breast
HT29 colon = system: HT29 colon
IGROV1 ovarian = system: IGROV1 ovarian
K-562 leukemia = system: K-562 leukemia
KM12 colon = system: KM12 colon
LOX IMVI melanoma = system: LOX IMVI melanoma
M14 melanoma = system: M14 melanoma
MCF7 breast = system: MCF7 breast
MDA-MB-231 breast = system: MDA-MB-231 breast
MDA-MB-435 = system: MDA-MB-435
MOLT-4 leukemia = system: MOLT-4 leukemia
NCI-H226 lung = system: NCI-H226 lung
NCI-H23 lung = system: NCI-H23 lung
NCI-H460 lung = system: NCI-H460 lung
NCI-H522 lung = system: NCI-H522 lung
NCI/ADR-RES ovarian = system: NCI/ADR-RES ovarian
OVCAR-3 ovarian = system: OVCAR-3 ovarian
OVCAR-4 ovarian = system: OVCAR-4 ovarian
OVCAR-5 ovarian = system: OVCAR-5 ovarian
OVCAR-8 ovarian = system: OVCAR-8 ovarian
PC-3 prostate = system: PC-3 prostate
RPMI-8226 leukemia = system: RPMI-8226 leukemia
RXF 393 renal = system: RXF 393 renal
SF-268 CNS = system: SF-268 CNS
SF-295 CNS = system: SF-295 CNS
SF-539 CNS = system: SF-539 CNS
SK-MEL-2 melanoma = system: SK-MEL-2 melanoma
SK-MEL-28 melanoma = system: SK-MEL-28 melanoma
SK-MEL-5 melanoma = system: SK-MEL-5 melanoma
SK-OV-3 ovarian = system: SK-OV-3 ovarian
SN12C renal = system: SN12C renal
SNB-19 CNS = system: SNB-19 CNS
SNB-75 CNS = system: SNB-75 CNS
SW-620 colon = system: SW-620 colon
T-47D breast = system: T-47D breast
TK-10 renal = system: TK-10 renal
U251 CNS = system: U251 CNS
UACC-257 melanoma = system: UACC-257 melanoma
UACC-62 melanoma = system: UACC-62 melanoma
UO-31 renal = system: UO-31 renal

SMILES: C=C1C(=O)O[C@@H]2C1CC(=O)C(C)CC/C=C(\C)CCC[C@H](C)[C@H]2OC(C)=O (stereo not given in full)
- GI50 (786-0 renal): 17 µM
- TGI (786-0 renal): 32.2 µM
- GI50 (A498 renal): 20.7 µM
- TGI (A498 renal): 35.4 µM
- GI50 (A549 NSCLC): 19.6 µM
- TGI (A549 NSCLC): 38.7 µM
- GI50 (ACHN renal): 11.4 µM
- TGI (ACHN renal): 24.1 µM
- GI50 (BT-549 breast): 13 µM
- TGI (BT-549 breast): 30.2 µM
- GI50 (CAKI-1 renal): 11.9 µM
- TGI (CAKI-1 renal): 24.4 µM
- GI50 (CCRF-CEM leukemia): 2 µM
- TGI (CCRF-CEM leukemia): 4.75 µM
- GI50 (COLO 205 colon): 5.34 µM
- TGI (COLO 205 colon): > 100 µM
- GI50 (DU-145 prostate): 15 µM
- TGI (DU-145 prostate): 31.7 µM
- GI50 (EKVX NSCLC): 16.3 µM
- TGI (EKVX NSCLC): 31.5 µM
- GI50 (HCC-2998 colon): 15.6 µM
- TGI (HCC-2998 colon): 29.9 µM
- GI50 (HCT-116 colon): 1.62 µM
- TGI (HCT-116 colon): 3.62 µM
- GI50 (HCT-15 colon): 13.7 µM
- TGI (HCT-15 colon): 30.4 µM
- GI50 (HOP-62 NSCLC): 18.2 µM
- TGI (HOP-62 NSCLC): 33.3 µM
- GI50 (HOP-92 NSCLC): 1.64 µM
- TGI (HOP-92 NSCLC): 9.12 µM
- GI50 (HS 578T breast): 15.2 µM
- TGI (HS 578T breast): 36 µM
- GI50 (HT29 colon): 5.28 µM
- TGI (HT29 colon): > 100 µM
- GI50 (IGROV1 ovarian): 10.1 µM
- TGI (IGROV1 ovarian): 26.3 µM
- GI50 (K-562 leukemia): 3.52 µM
- TGI (K-562 leukemia): 15.3 µM
- GI50 (KM12 colon): 12.8 µM
- TGI (KM12 colon): 29.1 µM
- GI50 (LOX IMVI melanoma): 2.15 µM
- TGI (LOX IMVI melanoma): 6.22 µM
- GI50 (M14 melanoma): 4.24 µM
- TGI (M14 melanoma): 16 µM
- GI50 (MCF7 breast): 4.81 µM
- TGI (MCF7 breast): 35.6 µM
- GI50 (MDA-MB-231 breast): 15.5 µM
- TGI (MDA-MB-231 breast): 33.5 µM
- GI50 (MDA-MB-435): 14.7 µM
- TGI (MDA-MB-435): 28 µM
- GI50 (MOLT-4 leukemia): 10.9 µM
- TGI (MOLT-4 leukemia): 35 µM
- GI50 (NCI-H226 lung): 15.1 µM
- TGI (NCI-H226 lung): 30.5 µM
- GI50 (NCI-H23 lung): 13.9 µM
- TGI (NCI-H23 lung): 29.5 µM
- GI50 (NCI-H460 lung): 21.2 µM
- TGI (NCI-H460 lung): 43.6 µM
- GI50 (NCI-H522 lung): 15.9 µM
- TGI (NCI-H522 lung): 41.6 µM
- GI50 (NCI/ADR-RES ovarian): 15.3 µM
- TGI (NCI/ADR-RES ovarian): 40.9 µM
- GI50 (OVCAR-3 ovarian): 10.2 µM
- TGI (OVCAR-3 ovarian): 21.8 µM
- GI50 (OVCAR-4 ovarian): 15.2 µM
- TGI (OVCAR-4 ovarian): 32 µM
- GI50 (OVCAR-5 ovarian): 18 µM
- TGI (OVCAR-5 ovarian): 34.6 µM
- GI50 (OVCAR-8 ovarian): 17.9 µM
- TGI (OVCAR-8 ovarian): 41.1 µM
- GI50 (PC-3 prostate): 13.7 µM
- TGI (PC-3 prostate): 30.6 µM
- GI50 (RPMI-8226 leukemia): 3.99 µM
- TGI (RPMI-8226 leukemia): 19 µM
- GI50 (RXF 393 renal): 7.9 µM
- TGI (RXF 393 renal): 24.4 µM
- GI50 (SF-268 CNS): 20.5 µM
- TGI (SF-268 CNS): 41.3 µM
- GI50 (SF-295 CNS): 19.8 µM
- TGI (SF-295 CNS): 36.2 µM
- GI50 (SF-539 CNS): 18.3 µM
- TGI (SF-539 CNS): 34.6 µM
- GI50 (SK-MEL-2 melanoma): 17.6 µM
- TGI (SK-MEL-2 melanoma): 45.5 µM
- GI50 (SK-MEL-28 melanoma): 11.8 µM
- TGI (SK-MEL-28 melanoma): 25.3 µM
- GI50 (SK-MEL-5 melanoma): 11.5 µM
- TGI (SK-MEL-5 melanoma): 23.6 µM
- GI50 (SK-OV-3 ovarian): 17 µM
- TGI (SK-OV-3 ovarian): 34.1 µM
- GI50 (SN12C renal): 5.46 µM
- TGI (SN12C renal): 21.6 µM
- GI50 (SNB-19 CNS): 25.5 µM
- TGI (SNB-19 CNS): > 100 µM
- GI50 (SNB-75 CNS): 14.9 µM
- TGI (SNB-75 CNS): 29.8 µM
- GI50 (SW-620 colon): 9.18 µM
- TGI (SW-620 colon): 21.9 µM
- GI50 (T-47D breast): 20.4 µM
- TGI (T-47D breast): 58.5 µM
- GI50 (TK-10 renal): 1.79 µM
- TGI (TK-10 renal): 8.43 µM
- GI50 (U251 CNS): 13.9 µM
- TGI (U251 CNS): 28.4 µM
- GI50 (UACC-257 melanoma): 18.4 µM
- TGI (UACC-257 melanoma): 36.6 µM
- GI50 (UACC-62 melanoma): 11.6 µM
- TGI (UACC-62 melanoma): 24.5 µM
- GI50 (UO-31 renal): 11.9 µM
- TGI (UO-31 renal): 29.5 µM
